The values that follow come from patent publication US8110570B2, “Modulators of acetyl-coenzyme A carboxylase and methods of use thereof” (Cropsolution, Inc., priority 2008, dated 2012).

Molecules are shown by their SMILES.

One experiment has as its system C2C12 cells. Description: Fatty acid oxidation assay, [1-14C]palmitate to CO2. The experiment is classed as cell-based, mouse. The note with it: compared to untreated controls. The text has this: (§1) The in vivo ACC inhibitory activity of compounds in this invention can be confirmed in cultured cells using standard procedures that are well known to those skilled in the art. For example, since ACC catalyzes the first committed step in fatty acid biosynthesis, the in vivo activity of compounds can be confirmed by measuring their ability to prevent the formation of radiolabeled fatty acids from radiolabeled acetate in cultured human hepatoma cells (HepG2). In addition, since the malonyl-CoA produced by ACC inhibits fatty acid oxidation, the in vivo ACC inhibitory activity of compounds can be further confirmed by measuring the stimulation of fatty acid oxidation in cultured mouse myoblast cells (C2C12).
Fatty acid oxidation assays are performed essentially as described (Beckers et al., Cancer Res, 2007, 67: 8180-8187). Briefly, C2C12 cells are plated at 600,000 cells/T25 flask. The next day, media is changed and the DMSO with or without test compound is added to a final concentration of 0.5% (v/v). After 1 h at 37° C. in atmosphere of 5% CO2, freshly made 2 uCi of FA-free bovine serum albumin-[1-^14C] palmitate complex is added to each flask. The flasks are then sealed with a stopper and incubated 6 h at 37° C. after which evolved CO2 is liberated by injection of perchloric acid to final concentration of 5% and captured by incubating the flasks overnight in the presence of filter paper soaked with 5% KOH. The filters are then air-dried and incubated with scintillation cocktail overnight for equilibrium. Radioactivity is quantified by scintillation counting.

The subject of another experiment is HepG2 cells. Nature of the experiment: Fatty acid synthesis assay, 14C-acetate incorporation into phospholipids. The experiment is classed as cell-based. The note with it: Homo sapiens, 24 h, read-out: inhibition of radiolabel incorporation into phospholipids.
Source text: as §1
Fatty acid synthesis assays are performed with slight modifications to published procedures (Beckers et al., Cancer Res, 2007, 67: 8180-8187; Wang, J Lipid Res., 2006, 47:2028-41). Briefly, HepG2 cells are grown in Dulbecco's modified eagles medium containing 10% fetal calf serum in 6-well culture plates. Cells are treated for 24 h with test compounds added as DMSO stock solutions to a final DMSO concentration of 0.5% (v/v). After test compound incubation, ^14C—[2]-acetate is added (3 μCi/6 well plate) and cells are further incubated for 4 hrs. Cells are then harvested in 40% methanol and assayed for total protein. Total lipids are extracted with chloroform:methanol (2:1) and ^14C-radioactivity is quantified in the aqueous and organic phases. Total lipids in the organic phase are separated by thin-layer chromatography (TLC, silica gel 60A) using hexane:ether:acetic acid (90:30:1) as the mobile phase. Radioactivity distribution of lipid classes on TLC plates is quantified by phosphorimaging (Molecular Dynamics Storm 820). Compound 6 inhibited radiolabel incorporation into phospholipids 32% and 14% at 10 μM and 1 μM, respectively, while Compound 2 inhibited radiolabel incorporation into phospholipids 93% and 42% at 10 μM and 1 μM, respectively.

Experiment [1] deals with uACC (Ustilago maydis ACC) (Ustilago maydis, UniProt A0A0D1DYD5). Description: [14C]bicarbonate incorporation assay, overall ACC activity. The experiment is classed as biochemical.
Chain of uACC (Ustilago maydis ACC) (A0A0D1DYD5 entry or part of it): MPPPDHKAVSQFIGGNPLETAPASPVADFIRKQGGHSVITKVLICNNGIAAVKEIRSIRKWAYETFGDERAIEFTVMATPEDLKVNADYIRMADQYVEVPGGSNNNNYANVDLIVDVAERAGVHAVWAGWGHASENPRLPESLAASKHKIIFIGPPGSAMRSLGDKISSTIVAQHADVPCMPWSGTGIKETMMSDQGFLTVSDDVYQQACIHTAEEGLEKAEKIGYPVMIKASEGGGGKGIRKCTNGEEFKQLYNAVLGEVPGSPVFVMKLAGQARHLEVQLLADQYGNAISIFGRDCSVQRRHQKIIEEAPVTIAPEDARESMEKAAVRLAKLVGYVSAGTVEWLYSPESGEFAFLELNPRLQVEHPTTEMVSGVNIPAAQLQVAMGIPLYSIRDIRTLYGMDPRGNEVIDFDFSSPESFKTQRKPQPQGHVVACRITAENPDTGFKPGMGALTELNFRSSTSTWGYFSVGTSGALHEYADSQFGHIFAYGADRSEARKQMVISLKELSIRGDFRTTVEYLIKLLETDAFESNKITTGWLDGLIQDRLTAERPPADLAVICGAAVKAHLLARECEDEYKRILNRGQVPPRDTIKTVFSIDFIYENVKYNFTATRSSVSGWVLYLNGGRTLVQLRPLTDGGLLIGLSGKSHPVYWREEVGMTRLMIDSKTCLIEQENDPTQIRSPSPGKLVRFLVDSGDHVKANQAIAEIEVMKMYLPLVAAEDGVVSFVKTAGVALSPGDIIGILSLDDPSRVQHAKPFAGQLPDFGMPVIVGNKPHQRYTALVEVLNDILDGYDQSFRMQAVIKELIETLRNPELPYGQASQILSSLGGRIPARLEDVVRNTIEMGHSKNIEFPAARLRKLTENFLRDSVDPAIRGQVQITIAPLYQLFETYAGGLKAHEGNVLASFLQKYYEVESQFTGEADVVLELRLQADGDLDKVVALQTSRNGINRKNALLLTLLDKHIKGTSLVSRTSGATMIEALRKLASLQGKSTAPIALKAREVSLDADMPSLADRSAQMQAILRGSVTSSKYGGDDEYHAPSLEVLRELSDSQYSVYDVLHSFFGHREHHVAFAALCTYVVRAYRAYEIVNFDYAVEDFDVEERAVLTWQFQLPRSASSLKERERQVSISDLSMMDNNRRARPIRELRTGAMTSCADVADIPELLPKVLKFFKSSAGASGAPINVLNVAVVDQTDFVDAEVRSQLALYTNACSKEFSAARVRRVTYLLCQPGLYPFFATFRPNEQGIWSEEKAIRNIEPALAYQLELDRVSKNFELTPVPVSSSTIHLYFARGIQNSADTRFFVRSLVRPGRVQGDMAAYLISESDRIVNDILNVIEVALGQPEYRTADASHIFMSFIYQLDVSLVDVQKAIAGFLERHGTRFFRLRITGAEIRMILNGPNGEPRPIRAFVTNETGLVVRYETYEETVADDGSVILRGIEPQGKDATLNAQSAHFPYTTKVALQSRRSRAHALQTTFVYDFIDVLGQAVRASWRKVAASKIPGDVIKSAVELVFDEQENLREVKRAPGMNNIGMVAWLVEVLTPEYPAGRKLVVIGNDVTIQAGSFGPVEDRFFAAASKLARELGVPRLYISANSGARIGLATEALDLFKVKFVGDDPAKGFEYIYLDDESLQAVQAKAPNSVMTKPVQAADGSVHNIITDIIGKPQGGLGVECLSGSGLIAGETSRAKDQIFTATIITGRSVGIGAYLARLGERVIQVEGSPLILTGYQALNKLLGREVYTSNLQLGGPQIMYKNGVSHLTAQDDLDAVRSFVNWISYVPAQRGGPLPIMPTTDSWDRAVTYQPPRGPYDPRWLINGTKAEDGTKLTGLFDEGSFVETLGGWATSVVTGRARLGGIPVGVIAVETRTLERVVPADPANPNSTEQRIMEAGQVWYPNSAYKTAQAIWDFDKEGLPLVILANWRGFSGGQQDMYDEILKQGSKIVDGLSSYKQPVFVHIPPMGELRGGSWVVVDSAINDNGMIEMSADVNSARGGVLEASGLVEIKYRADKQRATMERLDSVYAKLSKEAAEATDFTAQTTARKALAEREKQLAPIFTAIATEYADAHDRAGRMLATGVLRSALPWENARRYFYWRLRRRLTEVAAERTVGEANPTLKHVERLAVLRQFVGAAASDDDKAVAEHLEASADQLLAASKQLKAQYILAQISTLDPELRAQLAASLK
Experiment [2] deals with hepatic fatty acid synthesis. Nature of the experiment: In vivo inhibition of rat hepatic fatty acid synthesis. The note with it: oral. How it is done:
In vivo measurement of fatty acid synthesis inhibition in mammals. Incorporation of [2-^14C]acetate into saponifiable lipids in the livers of mammals (e.g. Sprague Dawley rats, Charles River Laboratories, Boston, Mass. or Harlan Laboratories, Indianapolis, Ind.) can be measured as described previously (Harwood Jr. H. J. et al., J Biol Chem, 39: 37099-37111 (2003)). For example, animals given food and water ad libitum are treated orally at volume of 1.0 ml/200 g of body weight with either an aqueous solution containing 0.5% methyl cellulose (vehicle) or an aqueous solution containing 0.5% methyl cellulose containing test compound. One hour after compound administration, animals receive an intraperitoneal injection of [2-^14C]acetate (0.02 mL, 1 mCi/mL; 50 mCi/mmol. One hour after radiolabel administration, animals are sacrificed by CO2 asphyxiation, and two liver pieces (about 0.75 g each) are removed and saponified at 70° C. for 120 min in 2.5 M NaOH (1.5 mL). After saponification, absolute EtOH (2.5 mL) is added to each sample and the solutions are mixed and allowed to stand overnight. Petroleum ether (4.8 mL) is then added to each sample, and after vigorous shaking (2 min) the mixtures are centrifuged at 1000×g (5 min). The petroleum ether layer containing the nonsaponifiable lipids is removed and discarded. The remaining aqueous layer is acidified (pH<2) by addition of 12 M HCl (0.6 mL) and extracted two times with petroleum ether (4.8 mL). The pooled organic fractions are transferred to liquid scintillation vials, dried under nitrogen, dissolved in Aquasol scintillation fluid (7 ml), and radioactivity is quantified by liquid scintillation counting. Inhibition of fatty acid synthesis by the test compound is expressed as a relative percent inhibition of measured incorporation of [2-^14C]acetate into saponifiable lipids during the interval between [2-^14C]acetate injection and CO2 asphyxiation in animals receiving test compound, compared to control animals receiving only the vehicle.
Compounds of the present invention, and salts thereof, were evaluated for inhibition of fatty acid synthesis as described above.

Experiment [3] deals with PC-3 human prostate cancer cells. Nature of the experiment: MTT Cell Proliferation Assay. The format is cell-based. The note with it: 72 hours, read-out: Percent of Control PC-3. The procedure, abridged:
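Cells seeded and grown 24 h at 37 °C, 5% CO2, then exposed to compound for 72 h. Viability read by MTT reduction (4 h) after overnight lysis/solubilization. Results expressed as percent of control versus compound concentration.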

In general, IC50 refers to the point on the concentration scale where inhibition reaches its midpoint. Higher therefore signals weaker potency in that assay. Regarding `COc1cc(C(=O)N2CCC3(CC2)NC(=O)c2cc(Br)ccc2O3)nc2c(OC)cccc12` [Compound 2, 6-Bromo-1′-[(4,8-dimethoxyquinoline-2-yl)carbonyl]spiro[2H-1,3-benzoxazine-2,4′-piperidine]-4(3H)-one], the “stimulation of fatty acid oxidation” value with C2C12 cells (C2C12, 0.1 μM) was found to be 170%; with C2C12 cells (C2C12, 1 μM), 320%. Further, the inhibition at 1 µM in the experiment on HepG2 cells (HepG2, 1 μM) came to 42%. For the same compound, the inhibition at 10 µM in the experiment with HepG2 cells (HepG2, 10 μM) came out at 93%. Further, in experiment [1], the IC50 is 11 µM.
Regarding `COc1ccc2c(c1)C(=O)NC1(CCN(C(=O)c3cc(OC)c4cccc(OC)c4n3)CC1)O2` [Compound 150], in experiment [2], the “Percent Inhibition at 10 mg/Kg” value was 20% and the “Percent Inhibition at 30 mg/Kg” value came out at 54%. Besides, in experiment [3], the activity at 3.3 µM turned out to be 60.7% and the activity at 10 µM was 47.7%.
On the same counts, the results for `COc1cc(C(=O)N2CCC3(CC2)NC(=O)c2cc(OC(C)C)ccc2O3)nc2c(OC)cccc12` [Compound 169] are 30%, 60%, 54.7% and 52.1%.
